Among the test systems are OVCAR-8 ovarian; OVCAR-5 ovarian; SW-620 colon; TK-10 renal; UACC-62 melanoma; OVCAR-4 ovarian; K-562 leukemia; HCC-2998 colon; MALME-3M melanoma; HOP-92 NSCLC.
Test in all cases: growth of human tumour cells (NCI), 48 h

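All cell lines were grown in 96-well plates and treated with compound for 48 hours. At the GI50, growth is halved. At the TGI there is no net growth.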

Consider `Cc1ccc(C2=Nc3c(N)ncnc3NC(c3cccc(Nc4ccnc5cc(C(F)(F)F)ccc45)c3)C2)cc1` (stereo not given), for which the GI50 was 5.89 µM with OVCAR-8 ovarian; 4.96 µM in the experiment with OVCAR-5 ovarian; 2.87 µM with SW-620 colon; 6.89 µM with TK-10 renal; 4.78 µM in the experiment on UACC-62 melanoma; 4.33 µM with OVCAR-4 ovarian. In addition, the GI50 with K-562 leukemia is 3.44 µM; in the experiment on HCC-2998 colon, 2.59 µM; in the experiment on MALME-3M melanoma, 3 µM; with HOP-92 NSCLC, 2.54 µM. The TGI in the experiment on OVCAR-8 ovarian is 76.7 µM; with OVCAR-5 ovarian it was greater than 100 µM; in the experiment on SW-620 colon, 11.3 µM; in the experiment with TK-10 renal it was 80.7 µM; in the experiment with UACC-62 melanoma, 26.8 µM; in the experiment with OVCAR-4 ovarian it was greater than 100 µM. In addition, the TGI in the experiment with K-562 leukemia is greater than 100 µM; in the experiment with HCC-2998 colon, 10.5 µM; in the experiment with MALME-3M melanoma it was 23.1 µM; with HOP-92 NSCLC it was 9.75 µM.

Take `CN1C(=O)c2cc(Cl)nc3c(NC(=O)c4cccc(Cl)c4)c(Cl)c(NC(=O)c4cccc(Cl)c4)c1c23`: the GI50 in the experiment on OVCAR-8 ovarian was 2.48 µM; in the experiment with OVCAR-5 ovarian, 12.8 µM; with SW-620 colon it was 1.78 µM; in the experiment on TK-10 renal, 2.28 µM; in the experiment on UACC-62 melanoma, 1.92 µM; in the experiment with OVCAR-4 ovarian, 1.7 µM. In addition, the GI50 with K-562 leukemia was 1.01 µM; in the experiment on HCC-2998 colon it was 1.76 µM; in the experiment with MALME-3M melanoma, 1.66 µM; in the experiment with HOP-92 NSCLC it was 1.71 µM. For the same molecule, the TGI with OVCAR-8 ovarian turned out to be 5.7 µM; in the experiment with OVCAR-5 ovarian it was 30.1 µM; in the experiment with SW-620 colon, 3.93 µM; in the experiment with TK-10 renal, 5.84 µM; in the experiment with UACC-62 melanoma it was 3.76 µM; in the experiment on OVCAR-4 ovarian it was 3.3 µM. Moreover, the TGI in the experiment with K-562 leukemia came out at 2.57 µM; in the experiment with HCC-2998 colon, 3.41 µM; with MALME-3M melanoma it was 3.44 µM; in the experiment on HOP-92 NSCLC, 3.41 µM.

For `Nc1ncnc2occ(-c3ccc(NC(=O)Nc4cc(C(F)(F)F)cc(C(F)(F)F)c4)cc3)c12`, the GI50 with OVCAR-8 ovarian is 2.89 µM; in the experiment on OVCAR-5 ovarian, 4.39 µM; with SW-620 colon, 4.01 µM; in the experiment on TK-10 renal, 1.84 µM; in the experiment with UACC-62 melanoma it was 3.26 µM; in the experiment with OVCAR-4 ovarian, 1.81 µM. Besides, the GI50 is 0.925 µM in the experiment on K-562 leukemia, 4.63 µM in the experiment on HCC-2998 colon, 4.09 µM in the experiment on MALME-3M melanoma and 0.977 µM in the experiment on HOP-92 NSCLC. Also, the TGI was determined as 7.11 µM in the experiment with OVCAR-8 ovarian; 8.99 µM with OVCAR-5 ovarian; 7.61 µM in the experiment with SW-620 colon; 5.96 µM in the experiment on TK-10 renal; 6.68 µM with UACC-62 melanoma; 5.92 µM in the experiment on OVCAR-4 ovarian. In addition, the TGI with K-562 leukemia was 9.21 µM; in the experiment with HCC-2998 colon it was 8.27 µM; in the experiment with MALME-3M melanoma it was 9.27 µM; in the experiment with HOP-92 NSCLC it was 4.42 µM.

Turning to `COc1cc(C2C3=C(COC3=O)N(CCO)c3cc4c(cc32)CCC4)cc(OC)c1O` (stereo not given), the GI50 with OVCAR-8 ovarian is 0.365 µM; in the experiment with OVCAR-5 ovarian, 3.18 µM; in the experiment on SW-620 colon, 0.121 µM; in the experiment on TK-10 renal, greater than 32.5 µM; with UACC-62 melanoma, 0.134 µM; with OVCAR-4 ovarian, 0.278 µM. Further, the GI50 is 0.161 µM with K-562 leukemia, 0.221 µM in the experiment with HCC-2998 colon, 0.104 µM in the experiment on MALME-3M melanoma and greater than 32.5 µM with HOP-92 NSCLC. Besides, the TGI with OVCAR-8 ovarian, in the experiment with OVCAR-5 ovarian, with SW-620 colon, in the experiment with TK-10 renal, in the experiment on UACC-62 melanoma and with OVCAR-4 ovarian was greater than 32.5 µM throughout. For the same molecule, the TGI with K-562 leukemia was greater than 32.5 µM; in the experiment on HCC-2998 colon, 1.29 µM; in the experiment on MALME-3M melanoma, greater than 32.5 µM; in the experiment with HOP-92 NSCLC, greater than 32.5 µM.

With `Oc1cc2cc(-c3ccccc3)[nH]c2c2ccccc12`, the TGI in the experiment on OVCAR-8 ovarian is greater than 100 µM; in the experiment on OVCAR-5 ovarian, greater than 100 µM; in the experiment with SW-620 colon, greater than 100 µM; in the experiment on TK-10 renal, greater than 100 µM; in the experiment with UACC-62 melanoma it was 29.4 µM; in the experiment on OVCAR-4 ovarian it was greater than 100 µM. In addition, the TGI with K-562 leukemia is greater than 88.8 µM; in the experiment on HCC-2998 colon, greater than 100 µM; with MALME-3M melanoma it was 41.6 µM; in the experiment on HOP-92 NSCLC, greater than 95.6 µM.

Take `COC(=O)C12CC(C3CC31)C1CC12` (stereo not given): the TGI with OVCAR-8 ovarian, with OVCAR-5 ovarian, in the experiment on SW-620 colon, with TK-10 renal, in the experiment on UACC-62 melanoma and in the experiment on OVCAR-4 ovarian was greater than 100 µM each time. Also, the TGI in the experiment on K-562 leukemia, with HCC-2998 colon, in the experiment on MALME-3M melanoma and in the experiment on HOP-92 NSCLC was greater than 100 µM in each case.

As for `CC1=CC2=C(C)C3(CC3)[C@@](C)(O)C(=O)C2=C1`, the TGI in the experiment with OVCAR-8 ovarian is 0.706 µM; with OVCAR-5 ovarian, 0.454 µM; in the experiment on SW-620 colon it was greater than 1 µM; with TK-10 renal, 0.89 µM; with UACC-62 melanoma it was 0.44 µM; in the experiment with OVCAR-4 ovarian, 0.356 µM. The TGI with K-562 leukemia was greater than 1 µM; with HCC-2998 colon it was 0.406 µM; in the experiment on MALME-3M melanoma, 0.424 µM; in the experiment with HOP-92 NSCLC it was 0.692 µM.

As to `O=c1[nH]c(=O)n(C2CC(O)C(CO)O2)cc1C#Cc1ccc(C(F)(F)F)cc1` (stereo not given), the TGI in the experiment with OVCAR-8 ovarian, with OVCAR-5 ovarian, in the experiment on SW-620 colon, in the experiment with TK-10 renal, in the experiment on UACC-62 melanoma and in the experiment with OVCAR-4 ovarian was greater than 100 µM each time. For the same molecule, the TGI with K-562 leukemia, with HCC-2998 colon, in the experiment with MALME-3M melanoma and in the experiment on HOP-92 NSCLC was greater than 100 µM each time.

As for `CCOP(=O)(OCC)/C(C#N)=C\c1cccc2ccccc12`, the TGI in the experiment on OVCAR-8 ovarian, with OVCAR-5 ovarian, with SW-620 colon, in the experiment with TK-10 renal, with UACC-62 melanoma and in the experiment on OVCAR-4 ovarian was greater than 100 µM each time. The TGI in the experiment on K-562 leukemia is greater than 100 µM; in the experiment on HCC-2998 colon, greater than 100 µM; in the experiment on MALME-3M melanoma, greater than 100 µM; in the experiment with HOP-92 NSCLC it was 93.6 µM.

Regarding `COc1cc2oc3ccccc3c(=O)c2cc1CSc1ccccc1N`, the TGI in the experiment on OVCAR-8 ovarian is greater than 100 µM; with OVCAR-5 ovarian it was greater than 100 µM; in the experiment on SW-620 colon it was greater than 100 µM; in the experiment with TK-10 renal, greater than 100 µM; in the experiment with UACC-62 melanoma, greater than 66.9 µM; in the experiment on OVCAR-4 ovarian, greater than 100 µM. Besides, the TGI is greater than 100 µM in the experiment on K-562 leukemia, 29.3 µM in the experiment on HCC-2998 colon, greater than 79.5 µM in the experiment with MALME-3M melanoma and greater than 100 µM with HOP-92 NSCLC.

These data come from PubChem BioAssay (NCI).
